Measured values published in ChEMBL document CHEMBL1147604, “Dipeptidyl aspartyl fluoromethylketones as potent caspase-3 inhibitors: SAR of the P2 amino acid” (Bioorg Med Chem Lett, 2004).

What was measured:
[1] = target: Cathepsin B (Homo sapiens, UniProt P07858); experiment: Compound was evaluated for its inhibitory activity against Cathepsin B
[2] = target: T1, Calpain-1 catalytic subunit (Homo sapiens, UniProt P07384); experiment: Compound was evaluated for its inhibitory activity against the Calpain 1 enzyme
T1 sequence (P07384 whole entry): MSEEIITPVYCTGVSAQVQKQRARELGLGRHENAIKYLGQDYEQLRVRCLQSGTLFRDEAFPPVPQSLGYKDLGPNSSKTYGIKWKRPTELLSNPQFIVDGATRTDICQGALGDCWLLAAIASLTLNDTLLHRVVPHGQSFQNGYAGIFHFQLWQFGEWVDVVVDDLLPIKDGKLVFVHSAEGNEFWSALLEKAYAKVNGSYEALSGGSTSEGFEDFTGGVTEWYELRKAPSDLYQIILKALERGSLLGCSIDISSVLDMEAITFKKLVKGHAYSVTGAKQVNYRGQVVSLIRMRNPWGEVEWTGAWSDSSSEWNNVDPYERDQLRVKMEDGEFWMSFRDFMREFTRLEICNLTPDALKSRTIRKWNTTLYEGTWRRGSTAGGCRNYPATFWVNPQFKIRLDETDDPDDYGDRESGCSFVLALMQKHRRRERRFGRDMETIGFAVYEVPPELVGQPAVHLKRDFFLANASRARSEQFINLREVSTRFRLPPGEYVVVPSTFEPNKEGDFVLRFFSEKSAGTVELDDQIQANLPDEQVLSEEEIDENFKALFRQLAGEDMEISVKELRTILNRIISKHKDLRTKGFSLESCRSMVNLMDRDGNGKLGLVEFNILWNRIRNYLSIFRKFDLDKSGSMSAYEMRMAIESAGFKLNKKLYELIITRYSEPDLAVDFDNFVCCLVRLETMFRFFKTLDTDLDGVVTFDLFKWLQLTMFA

[3] = target: T2, Caspase-6 (Homo sapiens, UniProt P55212); experiment: Compound was evaluated for its inhibitory activity against the Caspase-6 enzyme
T2 sequence (P55212 whole entry): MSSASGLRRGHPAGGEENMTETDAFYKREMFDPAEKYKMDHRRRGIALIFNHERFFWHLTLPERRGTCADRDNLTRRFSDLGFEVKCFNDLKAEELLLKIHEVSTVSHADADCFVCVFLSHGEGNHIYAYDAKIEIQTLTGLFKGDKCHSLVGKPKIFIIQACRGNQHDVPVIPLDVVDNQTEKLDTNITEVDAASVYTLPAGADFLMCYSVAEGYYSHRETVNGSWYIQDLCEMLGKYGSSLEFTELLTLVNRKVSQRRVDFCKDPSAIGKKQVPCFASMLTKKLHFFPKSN

[4] = target: T3, Caspase-1 (Homo sapiens, UniProt P29466); experiment: Compound was evaluated for its inhibitory activity against the Caspase-1 enzyme
T3 sequence (P29466 whole entry): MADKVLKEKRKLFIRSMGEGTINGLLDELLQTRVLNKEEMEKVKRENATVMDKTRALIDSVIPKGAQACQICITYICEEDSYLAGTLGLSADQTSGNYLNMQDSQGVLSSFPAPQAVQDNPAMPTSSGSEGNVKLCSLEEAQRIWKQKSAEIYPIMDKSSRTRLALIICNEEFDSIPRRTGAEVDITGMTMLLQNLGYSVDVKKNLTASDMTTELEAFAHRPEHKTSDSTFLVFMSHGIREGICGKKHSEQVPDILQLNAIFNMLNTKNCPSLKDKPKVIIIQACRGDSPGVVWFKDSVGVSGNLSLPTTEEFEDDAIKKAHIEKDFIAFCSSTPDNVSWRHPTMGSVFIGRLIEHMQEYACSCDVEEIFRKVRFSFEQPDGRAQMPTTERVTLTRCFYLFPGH

[5] = target: T4, Caspase-9 (Homo sapiens, UniProt P55211); experiment: Compound was evaluated for its inhibitory activity against the Caspase-9 enzyme
T4 sequence (P55211 whole entry): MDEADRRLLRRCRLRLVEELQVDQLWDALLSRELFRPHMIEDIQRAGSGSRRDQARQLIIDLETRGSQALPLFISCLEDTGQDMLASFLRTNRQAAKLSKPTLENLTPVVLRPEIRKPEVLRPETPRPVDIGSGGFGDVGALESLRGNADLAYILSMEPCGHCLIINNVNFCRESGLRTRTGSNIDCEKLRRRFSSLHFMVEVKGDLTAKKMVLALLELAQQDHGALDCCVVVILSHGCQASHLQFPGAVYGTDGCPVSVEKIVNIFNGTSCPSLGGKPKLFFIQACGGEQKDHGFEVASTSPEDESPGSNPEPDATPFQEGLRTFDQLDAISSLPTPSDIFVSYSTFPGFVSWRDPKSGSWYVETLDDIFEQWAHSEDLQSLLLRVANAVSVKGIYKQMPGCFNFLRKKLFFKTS

[6] = target: Coagulation factor X (Homo sapiens, UniProt P00742); experiment: Compound was evaluated for its inhibitory activity against the Coagulation factor X
[7] = target: Prothrombin (Homo sapiens, UniProt P00734); experiment: Compound was evaluated for its inhibitory activity against the Thrombin
[8] = target: T5, Caspase-3 (Homo sapiens, UniProt P42574); experiment: Inhibitory activity against human recombinant Caspase-3 enzyme
T5 sequence (P42574 whole entry): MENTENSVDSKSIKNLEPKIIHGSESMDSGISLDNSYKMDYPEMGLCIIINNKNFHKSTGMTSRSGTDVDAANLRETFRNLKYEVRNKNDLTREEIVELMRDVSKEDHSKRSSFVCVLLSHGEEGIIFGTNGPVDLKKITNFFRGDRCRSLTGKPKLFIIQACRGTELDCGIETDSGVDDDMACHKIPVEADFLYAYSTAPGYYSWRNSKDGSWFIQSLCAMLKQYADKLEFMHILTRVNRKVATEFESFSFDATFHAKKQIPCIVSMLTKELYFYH

[9] = target: T6, Caspase-7 (Homo sapiens, UniProt P55210); experiment: Compound was evaluated for its inhibitory activity against the Caspase-7 enzyme
T6 sequence (P55210 whole entry): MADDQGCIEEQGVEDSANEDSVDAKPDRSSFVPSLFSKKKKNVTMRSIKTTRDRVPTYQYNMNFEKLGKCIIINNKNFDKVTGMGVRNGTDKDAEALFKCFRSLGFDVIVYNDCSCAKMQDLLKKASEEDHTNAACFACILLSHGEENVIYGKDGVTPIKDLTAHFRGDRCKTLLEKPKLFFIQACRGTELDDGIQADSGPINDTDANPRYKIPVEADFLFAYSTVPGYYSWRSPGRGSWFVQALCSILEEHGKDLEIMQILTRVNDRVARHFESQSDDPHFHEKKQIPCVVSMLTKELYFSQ

[10] = target: Caspase-8 (Homo sapiens, UniProt Q14790); experiment: Compound was evaluated for its inhibitory activity against the Caspase-8 enzyme
[11] = target: T1, Calpain-1 catalytic subunit; experiment: Compound was evaluated for its inhibitory activity against the Calpain-1 enzyme

Sequence of Coagulation factor X (P00742 41-179 limits assumed): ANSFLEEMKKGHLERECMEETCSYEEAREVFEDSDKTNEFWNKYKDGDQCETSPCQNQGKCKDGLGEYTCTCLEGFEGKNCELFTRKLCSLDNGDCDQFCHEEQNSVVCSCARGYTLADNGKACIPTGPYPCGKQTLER
Sequence of Coagulation factor X (P00742 235-488 limits assumed): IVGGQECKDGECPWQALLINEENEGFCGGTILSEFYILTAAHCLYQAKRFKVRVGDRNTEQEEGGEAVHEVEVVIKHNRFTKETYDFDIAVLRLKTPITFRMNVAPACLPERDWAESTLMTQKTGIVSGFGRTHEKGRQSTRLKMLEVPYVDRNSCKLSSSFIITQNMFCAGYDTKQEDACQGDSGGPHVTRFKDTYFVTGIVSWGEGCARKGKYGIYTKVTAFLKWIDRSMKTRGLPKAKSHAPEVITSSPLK
Sequence of Caspase-8 (Q14790 217-374 limits assumed): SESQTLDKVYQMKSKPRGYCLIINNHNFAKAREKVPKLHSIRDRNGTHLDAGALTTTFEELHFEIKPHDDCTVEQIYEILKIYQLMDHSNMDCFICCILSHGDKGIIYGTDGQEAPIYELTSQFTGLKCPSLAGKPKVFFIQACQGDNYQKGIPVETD
Sequence of Caspase-8 (Q14790 385-479 limits assumed): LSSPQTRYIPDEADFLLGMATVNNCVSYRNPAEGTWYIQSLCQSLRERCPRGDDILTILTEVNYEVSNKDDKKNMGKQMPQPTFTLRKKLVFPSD

SMILES	IC50 [1] [nM]	IC50 [2] [nM]	IC50 [3] [nM]	IC50 [4] [nM]	IC50 [5] [nM]	IC50 [6] [nM]	IC50 [7] [nM]	IC50 [8] [nM]	IC50 [9] [nM]	IC50 [10] [nM]	IC50 [11] [nM]
CC(C)[C@H](NC(=O)OCc1ccccc1)C(=O)NC(CC(=O)O)C(=O)CF (stereo partly specified)	> 10000	> 10000	18	20	5	> 100000	> 100000	30	7	7	–
COC(=O)CC(NC(=O)[C@@H](NC(=O)OCc1ccccc1)C(C)C)C(=O)CF (stereo partly specified)	300	–	–	900	–	> 100000	> 100000	1100	–	–	120
